Experimental data as given in US20080248511A1, “METHODS TO QUENCH LIGHT FROM OPTICAL REACTIONS” (priority 2007, published 2008).
Where two headings read alike, the source gives them in different places.

Assays:
Assay type in all cases: biochemical
Renilla luciferase [1] = molecular target: T1, Renilla luciferase (Renilla reniformis, UniProt P27652); assay: Quaternary ammonium/phosphonium detergent screen, Renilla luciferase (Example 5); settings: for remaining activity at 0.1 % / Retained Renilla Luciferase Luminescence (%): Tergitol NP-9 present
T1 sequence (P27652 1-311): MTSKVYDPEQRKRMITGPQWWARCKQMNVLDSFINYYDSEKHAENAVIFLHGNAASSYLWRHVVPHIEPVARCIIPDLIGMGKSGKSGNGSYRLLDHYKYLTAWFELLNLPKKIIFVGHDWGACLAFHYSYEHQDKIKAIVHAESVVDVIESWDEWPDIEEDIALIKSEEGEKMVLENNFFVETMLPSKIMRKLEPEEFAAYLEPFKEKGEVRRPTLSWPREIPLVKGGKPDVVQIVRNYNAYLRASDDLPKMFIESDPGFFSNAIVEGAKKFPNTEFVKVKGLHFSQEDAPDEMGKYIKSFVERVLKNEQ
Method: (§1) Each detergent was added at 0.2% to a reagent solution containing 50 mM Tricine pH 8.3, 3.5 mM MgSO4, 1 mM CDTA, 30 mM thiourea and 0.5% Tergitol NP-9. This solution or one not containing a detergent inhibitor was used to resuspend the Bright-Glo™ luciferin substrate (Promega).
(§2) The luciferase reactions were initiated by adding 100 μl of the firefly luciferase or Renilla luciferase enzyme solutions to 100 μl of reagent solution. The reactions were performed as described above. […] The detergent concentrations listed refer to the final concentration in the reaction.

Renilla luciferase [2] = molecular target: T1, Renilla luciferase; assay: as above; settings: final conc. 0.03% detergent; for remaining activity at 0.03 % / Retained Renilla Luciferase Luminescence (%): Tergitol NP-9 present; for remaining activity at 0.03 %: read-out: Retained Renilla Luciferase Luminescence (%)
firefly luciferase [3] = molecular target: T2, firefly luciferase (Photinus pyralis, UniProt P08659); assay: Quaternary ammonium/phosphonium detergent screen, firefly luciferase (Example 5); settings: Tergitol NP-9 present
T2 sequence (P08659 whole entry): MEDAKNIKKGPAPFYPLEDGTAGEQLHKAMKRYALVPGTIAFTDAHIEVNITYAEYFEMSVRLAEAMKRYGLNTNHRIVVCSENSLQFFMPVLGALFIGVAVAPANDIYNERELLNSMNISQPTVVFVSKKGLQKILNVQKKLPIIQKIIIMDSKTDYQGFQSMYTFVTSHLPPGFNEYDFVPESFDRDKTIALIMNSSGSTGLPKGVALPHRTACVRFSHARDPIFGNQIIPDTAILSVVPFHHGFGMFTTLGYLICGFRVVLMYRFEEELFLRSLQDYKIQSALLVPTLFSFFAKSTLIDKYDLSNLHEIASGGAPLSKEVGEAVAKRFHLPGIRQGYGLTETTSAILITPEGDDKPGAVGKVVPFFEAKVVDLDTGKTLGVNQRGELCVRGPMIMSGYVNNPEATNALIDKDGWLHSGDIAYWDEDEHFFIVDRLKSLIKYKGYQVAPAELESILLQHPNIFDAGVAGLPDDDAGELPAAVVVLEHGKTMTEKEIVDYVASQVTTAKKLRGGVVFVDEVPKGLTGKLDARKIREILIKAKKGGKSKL
Method: as §1, §2

firefly luciferase [4] = molecular target: T2, firefly luciferase; assay: as above; settings: final conc. 0.03% detergent, Tergitol NP-9 present; for remaining activity at 0.03 %: read-out: Retained Firefly Luciferase Luminescence (%)
firefly luciferase [5] = molecular target: T2, firefly luciferase; assay: Detergent titration with Tergitol NP-9, digitonin or no lysing agent, firefly luciferase (Example 4); settings: read-out: Relative Firefly Luc Intensity; for remaining activity at 0.0005 %: 0.0005% detergent; for remaining activity at 0.005 %: 0.0050% detergent; for remaining activity at 0.05 %: 0.0500% detergent
Method: For measurement of firefly luciferase-mediated luminescence, a solution containing 110 mM HEPES pH 7.5, 8 mM MgSO4, 0.05% gelatin, 7.35 ng/ml firefly luciferase (QuantiLum® Luciferase; Promega) and the content of the Steady-Glo Luciferase Substrate (Promega) at the equivalent of 1×, As in the Renilla luciferase reactions, reactions contained either no lysing agent, 0.5% Tergitol NP-9 or 20 μg/ml digitonin. The same detergents were titrated as described above and firefly luciferase-mediated luminescence was measured.

Renilla luciferase [6] = molecular target: T1, Renilla luciferase; assay: biochemical; settings: 0.5% detergent in Renilla Luciferase Assay Reagent; read-out: Retained Renilla Luciferase Luminescence (%)
Method: The retained luminescence for each luciferase was calculated by dividing the luminescence in the presence of the detergent by the luminescence in the absence of the test detergent. The selectivity value for each of the test detergents was determined by dividing the retained firefly luciferase luminescence by the retained Renilla luciferase luminescence.
A set of detergents (Table 2; Sigma-Aldrich) was added at 0.5% (from a 5% or 10% stock solution) to either Luciferase Assay Reagent (Promega) or Renilla Luciferase Assay Reagent (Promega) and allowed to equilibrate at room temperature.
The firefly luciferase and Renilla luciferase enzymes were diluted as follows. Firefly luciferase was diluted to 14 ng/ml in Phosphate Buffered Saline (PBS) containing 0.1% of the protein carrier Prionex® (Pentapharm). Renilla luciferase was diluted to 10 ng/ml in 1× Renilla Luciferase Lysis Buffer (Promega) containing 0.1% Prionex®. The Renilla Luciferase Lysis Buffer […] detergent micelles when using the Renilla Luciferase Assay Reagent. In the absence of other detergents, this prevents sequestering of coelenterazine which inhibits Renilla luciferase-mediated luminescence.
The luciferase reactions were initiated by adding 40 μl of either the firefly or Renilla luciferase enzyme solution to 200 μl of the appropriate reagent solution (firefly luciferase enzyme solution+firefly luciferase reagent solution or Renilla luciferase enzyme solution+Renilla luciferase reagent solution, respectively). The reactions were performed in an opaque white, 96-well plate and luminescence was measured for 0.5 seconds per well using a Turner BioSystems Veritas™ Microplate luminometer. The retained firefly luciferase and Renilla luciferase luminescence, as well as the selectivity values for each detergent, were calculated (Table 2).

Renilla luciferase [7] = molecular target: T1, Renilla luciferase; assay: Detergent titration with Tergitol NP-9, digitonin or no lysing agent, Renilla luciferase (Example 4); settings: for remaining activity at 0.0005 % / remaining activity at 0.005 % / remaining activity at 0.05 %: read-out: Relative Renilla Luc Intensity
Method: Renilla luciferase-mediated luminescence was measured from samples containing 9.6 mM phosphate buffer pH 6.8, 2.7 mM KCl, 137 mM NaCl (in PBS), 0.1% gelatin, 75 nM coelentrazine (Promega) and 10.2 ng/ml Renilla luciferase. Reactions contained either no lysing agent, 0.5% Tergitol NP-9 or 20 μg/ml digitonin. The detergents to be tested were titrated to 0.05%, 0.005% or 0.0005% in the reactions prior to the addition of the Renilla luciferase. Renilla luciferase-mediated luminescence was measured as described herein.

[8] = final conc. 0.10% detergent, read-out: Retained Renilla Luciferase Luminescence (%)
[9] = final conc. 0.10% detergent, read-out: Retained Firefly Luciferase Luminescence (%)
[10] = read-out: Retained Renilla Luciferase Luminescence (%), final conc. 0.10% detergent
[11] = read-out: Retained Firefly Luciferase Luminescence (%), final conc. 0.10% detergent

CC[N+](C)(C)c1cccc(O)c1 [Edrophonium chloride]
Selectivity Value (Renilla luciferase [1]; final conc. 0.10% detergent): 1.1
remaining activity at 0.1 % (Renilla luciferase [1]; [8]): 89%
Selectivity Value (Renilla luciferase [2]): 1.0
remaining activity at 0.03 % (Renilla luciferase [2]): 93%
remaining activity at 0.1 % (firefly luciferase [3]; [9]): 102%
remaining activity at 0.03 % (firefly luciferase [4]): 98%

C=C(C)[P+](C)(c1ccccc1)c1ccccc1.[I-] [Isopropenylmethyldiphenylphosphonium iodide]
Selectivity Value (Renilla luciferase [1]; final conc. 0.10% detergent): 2.1
remaining activity at 0.1 % (Renilla luciferase [1]; [8]): 51%
Selectivity Value (Renilla luciferase [2]): 1.2
remaining activity at 0.03 % (Renilla luciferase [2]): 82%
remaining activity at 0.1 % (firefly luciferase [3]; [9]): 109%
remaining activity at 0.03 % (firefly luciferase [4]): 95%

C[N+](C)(C)Cc1ccccc1.[I-] [Bezyltrimethylammonium iodide]
Selectivity Value (Renilla luciferase [1]; final conc. 0.10% detergent): 0.6
Retained Renilla Luciferase Luminescence (%) (Renilla luciferase [1]; final conc. 0.10% detergent): 97%
Selectivity Value (Renilla luciferase [2]): 0.8
Retained Renilla Luciferase Luminescence (%) (Renilla luciferase [2]): 93%
Retained Firefly Luciferase Luminescence (%) (firefly luciferase [3]; final conc. 0.10% detergent): 62%
Retained Firefly Luciferase Luminescence (%) (firefly luciferase [4]): 76%

C[N+](C)(Cc1ccccc1)c1ccccc1.[Br-] [Benzyldimethylphenylammonium bromide]
Selectivity Value (Renilla luciferase [1]; final conc. 0.10% detergent): 1.3
Retained Renilla Luciferase Luminescence (%) (Renilla luciferase [1]; final conc. 0.10% detergent): 81%
Selectivity Value (Renilla luciferase [2]): 1.3
Retained Renilla Luciferase Luminescence (%) (Renilla luciferase [2]): 78%
Retained Firefly Luciferase Luminescence (%) (firefly luciferase [3]; final conc. 0.10% detergent): 107%
Retained Firefly Luciferase Luminescence (%) (firefly luciferase [4]): 101%

(−)-N-dodecyl-N-methyl ephedrium bromide
Selectivity Value (Renilla luciferase [1]; final conc. 0.10% detergent): 102.1
Retained Renilla Luciferase Luminescence (%) (Renilla luciferase [1]; final conc. 0.10% detergent): 1%
Selectivity Value (Renilla luciferase [2]): 7.1
Retained Renilla Luciferase Luminescence (%) (Renilla luciferase [2]): 15%
Retained Firefly Luciferase Luminescence (%) (firefly luciferase [3]; final conc. 0.10% detergent): 102%
Retained Firefly Luciferase Luminescence (%) (firefly luciferase [4]): 106%

C[N+](C)(C)Cc1ccccc1.[Br-] [Benzyltrimethylammonium bromide]
Selectivity Value (Renilla luciferase [1]; final conc. 0.10% detergent): 1.0
remaining activity at 0.1 % (Renilla luciferase [1]; [10]): 87%
Selectivity Value (Renilla luciferase [2]): 1.0
remaining activity at 0.03 % (Renilla luciferase [2]): 95%
remaining activity at 0.1 % (firefly luciferase [3]; [11]): 100%
remaining activity at 0.03 % (firefly luciferase [4]): 99%

CC[N+](CC)(CCC(=O)Nc1c(C)cccc1C)Cc1ccccc1.O=C([O-])c1ccccc1 [Benzyldiethyl(2,6-xylycarbamoylethyl)-ammonium benzoate]
Selectivity Value (Renilla luciferase [1]; final conc. 0.10% detergent): 2.2
Retained Renilla Luciferase Luminescence (%) (Renilla luciferase [1]; final conc. 0.10% detergent): 46%
Selectivity Value (Renilla luciferase [2]): 1.5
Retained Renilla Luciferase Luminescence (%) (Renilla luciferase [2]): 74%
Retained Firefly Luciferase Luminescence (%) (firefly luciferase [3]; final conc. 0.10% detergent): 102%
Retained Firefly Luciferase Luminescence (%) (firefly luciferase [4]): 110%

CC[P+](CC)(CC)Cc1ccccc1.[Br-] [Benzyltriethylphosphonium bromide]
Selectivity Value (Renilla luciferase [1]; final conc. 0.10% detergent): 2.0
remaining activity at 0.1 % (Renilla luciferase [1]; [8]): 51%
Selectivity Value (Renilla luciferase [2]): 1.1
remaining activity at 0.03 % (Renilla luciferase [2]): 88%
remaining activity at 0.1 % (firefly luciferase [3]; [9]): 102%
remaining activity at 0.03 % (firefly luciferase [4]): 97%

C=CCCC[P+](c1ccccc1)(c1ccccc1)c1ccccc1.[Br-] [(4-Penten-1-yl)triphenylphosphonium bromide]
Selectivity Value (Renilla luciferase [1]; final conc. 0.10% detergent): 4.9
remaining activity at 0.1 % (Renilla luciferase [1]; [8]): 21%
Selectivity Value (Renilla luciferase [2]): 1.7
remaining activity at 0.03 % (Renilla luciferase [2]): 57%
remaining activity at 0.1 % (firefly luciferase [3]; [9]): 102%
remaining activity at 0.03 % (firefly luciferase [4]): 98%

CCCCCCCCCCCCCCCC[N+](C)(C)Cc1ccccc1.[Cl-] [Benzyldimethylhexadecylammonium chloride]
Selectivity Value (Renilla luciferase [1]; final conc. 0.10% detergent): 32.2
remaining activity at 0.1 % (Renilla luciferase [1]; [8]): 3%
Selectivity Value (Renilla luciferase [2]): 2.1
remaining activity at 0.03 % (Renilla luciferase [2]): 47%
remaining activity at 0.1 % (firefly luciferase [3]; [9]): 97%
remaining activity at 0.03 % (firefly luciferase [4]): 100%

CC[N+](CC)(CC)Cc1ccccc1.[Br-] [Benzyltriethylammonium bromide]
Selectivity Value (Renilla luciferase [1]; final conc. 0.10% detergent): 0.9
remaining activity at 0.1 % (Renilla luciferase [1]; [10]): 87%
Selectivity Value (Renilla luciferase [2]): 1.0
remaining activity at 0.03 % (Renilla luciferase [2]): 95%
remaining activity at 0.1 % (firefly luciferase [3]; [11]): 100%
remaining activity at 0.03 % (firefly luciferase [4]): 97%

CCCCCCCCCCCCCCCC[N+](C)(C)C.[Cl-] [Cetyltrimethylammonium chloride]
remaining activity at 0.0005 % (firefly luciferase [5]; Dig): 164%
remaining activity at 0.0005 % (firefly luciferase [5]; Terg): 98%
remaining activity at 0.0005 % (firefly luciferase [5]; Water): 179%
remaining activity at 0.005 % (firefly luciferase [5]; Dig): 65%
remaining activity at 0.005 % (firefly luciferase [5]; Terg): 94%
remaining activity at 0.005 % (firefly luciferase [5]; Water): 70%
remaining activity at 0.05 % (firefly luciferase [5]; Dig (20 μg/ml digitonin)): 29%
remaining activity at 0.05 % (firefly luciferase [5]; Terg (0.5% Tergitol NP-9)): 38%
remaining activity at 0.05 % (firefly luciferase [5]; Water (no lysing agent)): 31%
remaining activity at 0.5 % (Renilla luciferase [6]): 5.23%
Selective Inhibition (Ff Luc Inh/Ren Luc Inh) (Renilla luciferase [7]; 0.0005% detergent, Dig): 12
remaining activity at 0.0005 % (Renilla luciferase [7]; 0.0005% detergent, Dig): 14%
Selective Inhibition (Ff Luc Inh/Ren Luc Inh) (Renilla luciferase [7]; 0.0005% detergent, Terg): 1.0
remaining activity at 0.0005 % (Renilla luciferase [7]; 0.0005% detergent, Terg): 95%
Selective Inhibition (Ff Luc Inh/Ren Luc Inh) (Renilla luciferase [7]; 0.0005% detergent, Water): 13
remaining activity at 0.0005 % (Renilla luciferase [7]; 0.0005% detergent, Water): 13%
Selective Inhibition (Ff Luc Inh/Ren Luc Inh) (Renilla luciferase [7]; 0.0050% detergent, Dig): 2829
remaining activity at 0.005 % (Renilla luciferase [7]; 0.0050% detergent, Dig): 0.02%
Selective Inhibition (Ff Luc Inh/Ren Luc Inh) (Renilla luciferase [7]; 0.0050% detergent, Terg): 1.3
remaining activity at 0.005 % (Renilla luciferase [7]; 0.0050% detergent, Terg): 71%
Selective Inhibition (Ff Luc Inh/Ren Luc Inh) (Renilla luciferase [7]; 0.0050% detergent, Water): 3848
remaining activity at 0.005 % (Renilla luciferase [7]; 0.0050% detergent, Water): 0.02%
remaining activity at 0.05 % (Renilla luciferase [7]; 0.0500% (w:v) detergent, Terg (0.5% Tergitol NP-9)): 6%
Selective Inhibition (Ff Luc Inh/Ren Luc Inh) (Renilla luciferase [7]; 0.0500% detergent, Dig): 1395
remaining activity at 0.05 % (Renilla luciferase [7]; 0.0500% detergent, Dig (20 μg/ml digitonin)): 0.02%
Selective Inhibition (Ff Luc Inh/Ren Luc Inh) (Renilla luciferase [7]; 0.0500% detergent, Terg): 6
Selective Inhibition (Ff Luc Inh/Ren Luc Inh) (Renilla luciferase [7]; 0.0500% detergent, Water): 1611
remaining activity at 0.05 % (Renilla luciferase [7]; 0.0500% detergent, Water (no lysing agent)): 0.02%

C[N+]1(C)CCCc2cccc(O)c21.[I-] [1,1-Dimethyl-8-hydroxy-1,2,3,4-tetrahydroquinolium iodide]
Selectivity Value (Renilla luciferase [1]; final conc. 0.10% detergent): 0.8
Retained Renilla Luciferase Luminescence (%) (Renilla luciferase [1]; final conc. 0.10% detergent): 82%
Selectivity Value (Renilla luciferase [2]): 0.9
Retained Renilla Luciferase Luminescence (%) (Renilla luciferase [2]): 88%
Retained Firefly Luciferase Luminescence (%) (firefly luciferase [3]; final conc. 0.10% detergent): 68%
Retained Firefly Luciferase Luminescence (%) (firefly luciferase [4]): 81%
